Earlier results as cited in patent publication US7879906B2, “GABA analogs, compositions and methods for manufacturing thereof” (Anchen Laboratories, Inc., priority 2006, dated 2011).

System: mouse

## O=C1CC2(CCCCC2)CN1 [gabapentin lactam]
  toxicity (LD50, mouse): 300 mg/kg

## NCC1(CC(=O)O)CCCCC1 [gabapentin]
  toxicity (LD50, mouse): more than 8000 mg/kg
